Assay results as given in PubChem BioAssay (NCI).
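How tested: cells in 96-well plates exposed to compound for 48 hours at five concentrations. At the TGI there is no net growth.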

How the values were obtained:
Test in all cases: inhibition of tumour cell growth, NCI panel, 48 h
786-0 renal = test system: 786-0 renal
A498 renal = test system: A498 renal
A549 NSCLC = test system: A549 NSCLC
ACHN renal = test system: ACHN renal
CAKI-1 renal = test system: CAKI-1 renal
CCRF-CEM leukemia = test system: CCRF-CEM leukemia
COLO 205 colon = test system: COLO 205 colon
DLD-1 colon = test system: DLD-1 colon
DMS 114 small cell lung = test system: DMS 114 small cell lung
DMS 273 small cell lung = test system: DMS 273 small cell lung
EKVX NSCLC = test system: EKVX NSCLC
HCC-2998 colon = test system: HCC-2998 colon
HCT-116 colon = test system: HCT-116 colon
HCT-15 colon = test system: HCT-15 colon
HL-60(TB) leukemia = test system: HL-60(TB) leukemia
HOP-62 NSCLC = test system: HOP-62 NSCLC
HOP-92 NSCLC = test system: HOP-92 NSCLC
HT29 colon = test system: HT29 colon
IGROV1 ovarian = test system: IGROV1 ovarian
K-562 leukemia = test system: K-562 leukemia
KM12 colon = test system: KM12 colon
KM20L2 colon = test system: KM20L2 colon
LOX IMVI melanoma = test system: LOX IMVI melanoma
LXFL 529 NSCLC = test system: LXFL 529 NSCLC
M14 melanoma = test system: M14 melanoma
M19-MEL melanoma = test system: M19-MEL melanoma
MALME-3M melanoma = test system: MALME-3M melanoma
MOLT-4 leukemia = test system: MOLT-4 leukemia
NCI-H226 lung = test system: NCI-H226 lung
NCI-H23 lung = test system: NCI-H23 lung
NCI-H460 lung = test system: NCI-H460 lung
NCI-H522 lung = test system: NCI-H522 lung
OVCAR-3 ovarian = test system: OVCAR-3 ovarian
OVCAR-4 ovarian = test system: OVCAR-4 ovarian
OVCAR-5 ovarian = test system: OVCAR-5 ovarian
OVCAR-8 ovarian = test system: OVCAR-8 ovarian
RPMI-8226 leukemia = test system: RPMI-8226 leukemia
RXF 393 renal = test system: RXF 393 renal
RXF-631 renal = test system: RXF-631 renal
SF-268 CNS = test system: SF-268 CNS
SF-295 CNS = test system: SF-295 CNS
SF-539 CNS = test system: SF-539 CNS
SK-MEL-2 melanoma = test system: SK-MEL-2 melanoma
SK-MEL-28 melanoma = test system: SK-MEL-28 melanoma
SK-MEL-5 melanoma = test system: SK-MEL-5 melanoma
SK-OV-3 ovarian = test system: SK-OV-3 ovarian
SN12C renal = test system: SN12C renal
SNB-19 CNS = test system: SNB-19 CNS
SNB-75 CNS = test system: SNB-75 CNS
SNB-78 CNS = test system: SNB-78 CNS
SR leukemia = test system: SR leukemia
SW-620 colon = test system: SW-620 colon
TK-10 renal = test system: TK-10 renal
U251 CNS = test system: U251 CNS
UACC-257 melanoma = test system: UACC-257 melanoma
UACC-62 melanoma = test system: UACC-62 melanoma
UO-31 renal = test system: UO-31 renal
XF 498 CNS = test system: XF 498 CNS
BT-549 breast = test system: BT-549 breast
DU-145 prostate = test system: DU-145 prostate
HOP-18 NSCLC = test system: HOP-18 NSCLC
HS 578T breast = test system: HS 578T breast
MCF7 breast = test system: MCF7 breast
MDA-MB-231 breast = test system: MDA-MB-231 breast
MDA-MB-435 = test system: MDA-MB-435
MDA-N = test system: MDA-N
NCI/ADR-RES ovarian = test system: NCI/ADR-RES ovarian
PC-3 prostate = test system: PC-3 prostate
T-47D breast = test system: T-47D breast

Nc1c(S(=O)(=O)c2ccccc2)c2nc3ccccc3nc2n2c1nc1ccccc12
TGI (786-0 renal): > 50.5 µM
TGI (A498 renal): > 100 µM
TGI (A549 NSCLC): > 100 µM
TGI (ACHN renal): > 100 µM
TGI (CAKI-1 renal): > 100 µM
TGI (CCRF-CEM leukemia): > 100 µM
TGI (COLO 205 colon): > 100 µM
TGI (DLD-1 colon): > 100 µM
TGI (DMS 114 small cell lung): > 100 µM
TGI (DMS 273 small cell lung): > 71.9 µM
TGI (EKVX NSCLC): > 100 µM
TGI (HCC-2998 colon): > 100 µM
TGI (HCT-116 colon): > 100 µM
TGI (HCT-15 colon): > 100 µM
TGI (HL-60(TB) leukemia): > 100 µM
TGI (HOP-62 NSCLC): > 49.6 µM
TGI (HOP-92 NSCLC): > 100 µM
TGI (HT29 colon): > 100 µM
TGI (IGROV1 ovarian): 98.9 µM
TGI (K-562 leukemia): > 100 µM
TGI (KM12 colon): > 100 µM
TGI (KM20L2 colon): > 100 µM
TGI (LOX IMVI melanoma): > 100 µM
TGI (LXFL 529 NSCLC): > 100 µM
TGI (M14 melanoma): > 31.6 µM
TGI (M19-MEL melanoma): > 100 µM
TGI (MALME-3M melanoma): > 80.9 µM
TGI (MOLT-4 leukemia): > 100 µM
TGI (NCI-H226 lung): > 75.1 µM
TGI (NCI-H23 lung): > 50 µM
TGI (NCI-H460 lung): > 100 µM
TGI (NCI-H522 lung): > 100 µM
TGI (OVCAR-3 ovarian): > 100 µM
TGI (OVCAR-4 ovarian): > 80.5 µM
TGI (OVCAR-5 ovarian): > 100 µM
TGI (OVCAR-8 ovarian): > 63.4 µM
TGI (RPMI-8226 leukemia): > 100 µM
TGI (RXF 393 renal): > 100 µM
TGI (RXF-631 renal): 47.5 µM
TGI (SF-268 CNS): > 72.9 µM
TGI (SF-295 CNS): > 53.4 µM
TGI (SF-539 CNS): > 53.9 µM
TGI (SK-MEL-2 melanoma): > 100 µM
TGI (SK-MEL-28 melanoma): > 62.3 µM
TGI (SK-MEL-5 melanoma): > 66.2 µM
TGI (SK-OV-3 ovarian): > 100 µM
TGI (SN12C renal): > 87.2 µM
TGI (SNB-19 CNS): > 93.2 µM
TGI (SNB-75 CNS): > 51.1 µM
TGI (SNB-78 CNS): > 62.1 µM
TGI (SR leukemia): > 100 µM
TGI (SW-620 colon): > 100 µM
TGI (TK-10 renal): > 100 µM
TGI (U251 CNS): > 47.5 µM
TGI (UACC-257 melanoma): > 100 µM
TGI (UACC-62 melanoma): > 100 µM
TGI (UO-31 renal): > 100 µM
TGI (XF 498 CNS): > 44.5 µM

CCCCCCCCCCCC(=O)OC[C@@H](C[As](=O)(O)O)OC(=O)CCCCCCCCCCC
TGI (786-0 renal): 26.5 µM
TGI (A498 renal): 24.3 µM
TGI (A549 NSCLC): 31.3 µM
TGI (ACHN renal): 10.4 µM
TGI (BT-549 breast): 9.91 µM
TGI (CAKI-1 renal): 23.8 µM
TGI (CCRF-CEM leukemia): > 94.4 µM
TGI (COLO 205 colon): 36.6 µM
TGI (DLD-1 colon): 33.3 µM
TGI (DMS 114 small cell lung): 4.54 µM
TGI (DMS 273 small cell lung): 12.3 µM
TGI (DU-145 prostate): 36.6 µM
TGI (EKVX NSCLC): 28.8 µM
TGI (HCC-2998 colon): 20.1 µM
TGI (HCT-116 colon): 21.7 µM
TGI (HCT-15 colon): 24.1 µM
TGI (HL-60(TB) leukemia): > 30 µM
TGI (HOP-18 NSCLC): 27.7 µM
TGI (HOP-62 NSCLC): 28.8 µM
TGI (HOP-92 NSCLC): 4.44 µM
TGI (HS 578T breast): 29.4 µM
TGI (HT29 colon): 25.3 µM
TGI (IGROV1 ovarian): 3.8 µM
TGI (K-562 leukemia): > 55.1 µM
TGI (KM12 colon): 17.1 µM
TGI (KM20L2 colon): 26.4 µM
TGI (LOX IMVI melanoma): 18.1 µM
TGI (LXFL 529 NSCLC): 17.7 µM
TGI (M14 melanoma): 8.47 µM
TGI (M19-MEL melanoma): 19.4 µM
TGI (MALME-3M melanoma): 8.84 µM
TGI (MCF7 breast): 9.24 µM
TGI (MDA-MB-231 breast): 15.4 µM
TGI (MDA-MB-435): 15 µM
TGI (MDA-N): 15 µM
TGI (MOLT-4 leukemia): > 77.2 µM
TGI (NCI-H226 lung): 34.1 µM
TGI (NCI-H23 lung): 17.8 µM
TGI (NCI-H460 lung): 11.1 µM
TGI (NCI-H522 lung): 6.5 µM
TGI (NCI/ADR-RES ovarian): 36.6 µM
TGI (OVCAR-3 ovarian): 16.5 µM
TGI (OVCAR-4 ovarian): 29.1 µM
TGI (OVCAR-5 ovarian): 30.8 µM
TGI (OVCAR-8 ovarian): 23.6 µM
TGI (PC-3 prostate): 8.14 µM
TGI (RPMI-8226 leukemia): > 68.2 µM
TGI (RXF 393 renal): 6.99 µM
TGI (SF-268 CNS): > 32.2 µM
TGI (SF-295 CNS): 27.1 µM
TGI (SF-539 CNS): 27.8 µM
TGI (SK-MEL-2 melanoma): 7.48 µM
TGI (SK-MEL-28 melanoma): 11.3 µM
TGI (SK-MEL-5 melanoma): 3.91 µM
TGI (SK-OV-3 ovarian): 26.2 µM
TGI (SN12C renal): 19.8 µM
TGI (SNB-19 CNS): 10.8 µM
TGI (SNB-75 CNS): 16.6 µM
TGI (SR leukemia): 57.2 µM
TGI (SW-620 colon): 29.1 µM
TGI (T-47D breast): 37.7 µM
TGI (TK-10 renal): 25 µM
TGI (U251 CNS): 4.42 µM
TGI (UACC-257 melanoma): 31.7 µM
TGI (UACC-62 melanoma): 6.94 µM
TGI (UO-31 renal): 27.9 µM
TGI (XF 498 CNS): 29 µM

O=C1c2ccc3c4ccccc4n(-c4ccccc4)c3c2C(=O)N1c1ccc(Cl)cc1
TGI (786-0 renal): > 100 µM
TGI (A498 renal): > 100 µM
TGI (A549 NSCLC): > 100 µM
TGI (ACHN renal): > 100 µM
TGI (CAKI-1 renal): > 100 µM
TGI (CCRF-CEM leukemia): > 100 µM
TGI (COLO 205 colon): > 100 µM
TGI (DLD-1 colon): > 100 µM
TGI (DMS 114 small cell lung): > 100 µM
TGI (DMS 273 small cell lung): > 100 µM
TGI (EKVX NSCLC): > 100 µM
TGI (HCC-2998 colon): > 100 µM
TGI (HCT-116 colon): > 100 µM
TGI (HCT-15 colon): > 100 µM
TGI (HL-60(TB) leukemia): > 100 µM
TGI (HOP-62 NSCLC): > 100 µM
TGI (HOP-92 NSCLC): 75 µM
TGI (HT29 colon): > 100 µM
TGI (IGROV1 ovarian): > 100 µM
TGI (K-562 leukemia): > 100 µM
TGI (KM12 colon): > 100 µM
TGI (KM20L2 colon): > 100 µM
TGI (LOX IMVI melanoma): > 100 µM
TGI (LXFL 529 NSCLC): > 100 µM
TGI (M14 melanoma): > 100 µM
TGI (M19-MEL melanoma): > 100 µM
TGI (MALME-3M melanoma): > 100 µM
TGI (MOLT-4 leukemia): > 100 µM
TGI (NCI-H226 lung): > 100 µM
TGI (NCI-H23 lung): 24.4 µM
TGI (NCI-H460 lung): > 100 µM
TGI (NCI-H522 lung): > 100 µM
TGI (OVCAR-3 ovarian): > 100 µM
TGI (OVCAR-4 ovarian): > 100 µM
TGI (OVCAR-5 ovarian): > 100 µM
TGI (OVCAR-8 ovarian): > 100 µM
TGI (RXF 393 renal): > 100 µM
TGI (RXF-631 renal): > 100 µM
TGI (SF-268 CNS): > 100 µM
TGI (SF-295 CNS): > 100 µM
TGI (SF-539 CNS): > 100 µM
TGI (SK-MEL-2 melanoma): > 100 µM
TGI (SK-MEL-5 melanoma): > 100 µM
TGI (SK-OV-3 ovarian): > 100 µM
TGI (SN12C renal): > 100 µM
TGI (SNB-19 CNS): > 100 µM
TGI (SNB-75 CNS): > 100 µM
TGI (SNB-78 CNS): > 100 µM
TGI (SR leukemia): > 100 µM
TGI (SW-620 colon): > 100 µM
TGI (TK-10 renal): > 100 µM
TGI (U251 CNS): > 100 µM
TGI (UACC-257 melanoma): > 100 µM
TGI (UACC-62 melanoma): > 100 µM
TGI (UO-31 renal): > 100 µM
